# Assay results from paper PMC10535710, “Beauvericin suppresses the proliferation and pulmonary metastasis of osteosarcoma by selectively inhibiting TGFBR2 pathway” (International Journal of Biological Sciences, 2023).
# Key:
# TGFBR2 = target: T1, TGFBR2 (Homo sapiens, UniProt P37173); assay: TR-FRET LanthaScreen Eu Kinase Binding Assay (tracer […]; reported as kinase activity inhibition); supported by MST, DARTS on recombinant protein, CETSA
# T1 construct: MST used recombinant human TGFBR2 ECD
# T1 sequence (P37173 188-567 limits assumed): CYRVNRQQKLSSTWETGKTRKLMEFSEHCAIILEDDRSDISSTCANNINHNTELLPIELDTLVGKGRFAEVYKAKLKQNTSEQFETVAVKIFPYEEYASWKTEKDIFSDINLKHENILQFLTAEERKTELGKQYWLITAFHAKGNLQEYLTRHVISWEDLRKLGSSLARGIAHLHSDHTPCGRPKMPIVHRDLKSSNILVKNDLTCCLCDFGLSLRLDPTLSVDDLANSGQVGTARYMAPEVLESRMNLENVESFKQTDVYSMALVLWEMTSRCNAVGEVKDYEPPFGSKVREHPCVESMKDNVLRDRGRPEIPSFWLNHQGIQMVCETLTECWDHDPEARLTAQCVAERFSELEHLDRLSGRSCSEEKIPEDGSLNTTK
# TGFBR2 K252R = target: T2, TGFBR2 K252R (Homo sapiens, UniProt P37173, K252R); assay: DARTS (protection from pronase) in OS cells expressing the mutant; type: cell-based
# T2 construct: TGFBR2 K252R overexpression plasmid transfected into OS cells
# T2 sequence (P37173 23-567 K252R): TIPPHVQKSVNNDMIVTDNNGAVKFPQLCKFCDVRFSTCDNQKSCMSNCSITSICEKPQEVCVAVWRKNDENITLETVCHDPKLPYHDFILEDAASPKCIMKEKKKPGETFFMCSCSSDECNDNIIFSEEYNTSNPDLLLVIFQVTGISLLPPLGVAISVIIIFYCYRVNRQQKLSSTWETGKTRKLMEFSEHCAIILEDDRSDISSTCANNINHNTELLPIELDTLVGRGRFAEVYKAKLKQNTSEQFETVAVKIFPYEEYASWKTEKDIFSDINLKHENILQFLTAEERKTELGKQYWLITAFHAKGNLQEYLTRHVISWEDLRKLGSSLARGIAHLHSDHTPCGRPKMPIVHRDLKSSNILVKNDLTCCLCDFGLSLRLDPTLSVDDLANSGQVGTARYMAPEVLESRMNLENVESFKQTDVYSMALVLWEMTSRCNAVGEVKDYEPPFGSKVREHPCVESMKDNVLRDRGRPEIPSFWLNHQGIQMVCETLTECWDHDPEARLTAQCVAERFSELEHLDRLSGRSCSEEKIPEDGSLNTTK
structure (smiles),measurement,setting,value
"CC(C)[C@H]1OC(=O)[C@H](Cc2ccccc2)N(C)C(=O)[C@@H](C(C)C)OC(=O)[C@H](Cc2ccccc2)N(C)C(=O)[C@@H](C(C)C)OC(=O)[C@H](Cc2ccccc2)N(C)C1=O [BEA, beauvericin]",IC50,TGFBR2,1360 ± 210 nM
same,DARTS (protection from pronase) in OS cells expressing the mutant,TGFBR2 K252R,"BEA suppressed the pronase-induced degradation of TGFBR2^K252R (Figure S7A-B), indicating that BEA may bind to TGFBR2 at N332"
